Results taken from publication PMC11012124, “Synthesis of Novel Triazine-Based Chalcones and 8,9-dihydro-7H-pyrimido[4,5-b][1,4]diazepines as Potential Leads in the Search of Anticancer, Antibacterial and Antifungal Agents” (International Journal of Molecular Sciences, 2024).
In brackets after ≈: the same amount, converted by molar mass.

Legend:
[1] = system: UACC-62; assay: cells; conditions: Homo sapiens, UACC-62, 48 h; for CC50: read-out: LC50
[2] = system: M. tuberculosis ATCC 27294; assay: Antitubercular broth microdilution MIC; format: cell-based; conditions: Mycobacterium tuberculosis; M. tuberculosis ATCC 27294 (H37Rv); read-out: Minimum inhibitory concentration (MIC)
[3] = system: HOP-62; assay: cells; conditions: Homo sapiens, HOP-62, 48 h; for CC50: read-out: LC50
[4] = system: PC-3; assay: cells; conditions: Homo sapiens, PC-3, 48 h; for CC50: read-out: LC50
[5] = system: SW-620; assay: cells; conditions: Homo sapiens, SW-620, 48 h; for CC50: read-out: LC50
[6] = system: ACHN; assay: cells; conditions: Homo sapiens, 48 h; for CC50: read-out: LC50
[7] = system: SF-268; assay: cells; conditions: Homo sapiens, SF-268, 48 h; for CC50: read-out: LC50
[8] = system: CAKI-1; assay: cells; conditions: Homo sapiens, CAKI-1, 48 h; for CC50: read-out: LC50
[9] = system: SK-MEL-28; assay: cells; conditions: Homo sapiens, SK-MEL-28, 48 h; for CC50: read-out: LC50
[10] = system: HS 578T; assay: cells; conditions: Homo sapiens, 48 h; for CC50: read-out: LC50
[11] = system: CCRF-CEM; assay: cells; conditions: Homo sapiens, 48 h; for CC50: read-out: LC50
[12] = system: SNB-19; assay: cells; conditions: Homo sapiens, SNB-19, 48 h; for CC50: read-out: LC50
[13] = system: NCI-H322M; assay: cells; conditions: Homo sapiens, 48 h; for CC50: read-out: LC50
[14] = system: NCI/ADR-RES; assay: cells; conditions: Homo sapiens, 48 h; for CC50: read-out: LC50
[15] = system: OVCAR-8; assay: cells; conditions: Homo sapiens, OVCAR-8, 48 h; for CC50: read-out: LC50
[16] = system: MDA-MB-435; assay: cells; conditions: Homo sapiens, MDA-MB-435, 48 h; for CC50: read-out: LC50
[17] = system: MALME-3M; assay: cells; conditions: Homo sapiens, 48 h; for CC50: read-out: LC50
[18] = system: K-562; assay: cells; conditions: Homo sapiens, K562, 48 h; for GI50: K-562, 48 h; for CC50: read-out: LC50
[19] = system: RXF 393; assay: cells; conditions: Homo sapiens, RXF 393, 48 h; for CC50: read-out: LC50
[20] = Hemolytic activity, spectrophotometric; format: cell-based, human; conditions: human, human red blood cells (huRBC), 5% hematocrit, 200 μg/mL, 37 °C
[21] = system: BT-549; assay: cells; conditions: Homo sapiens, BT-549, 48 h; for CC50: read-out: LC50
[22] = system: HCC-2998; assay: cells; conditions: Homo sapiens, HCC 2998, 48 h; for CC50: read-out: LC50
[23] = system: IGROV1; assay: cells; conditions: Homo sapiens, IGROV-1, 48 h; for CC50: read-out: LC50
[24] = system: OVCAR-3; assay: cells; conditions: Homo sapiens, OVCAR-3, 48 h; for CC50: read-out: LC50
[25] = system: EKVX; assay: cells; conditions: Homo sapiens, 48 h; for CC50: read-out: LC50
[26] = system: N. gonorrhoeae ATCC 49226; assay: MIC on GC agar plates; format: cell-based, Neisseria gonorrhoeae; conditions: Neisseria gonorrhoeae, ATCC49226, read-out: MIC
Outline: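 Agar dilution was used: GC agar with 1% IsoVitaleX containing increasing compound concentrations was inoculated with 1 × 10^4 CFU. The MIC was taken as the lowest concentration inhibiting growth, with growth confirmed by oxidase test, in duplicate across at least two independent experiments.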

[27] = system: SR; assay: cells; conditions: Homo sapiens, 48 h

## CN(C)c1nc(NCCNS(=O)(=O)c2ccc(C(=O)/C=C/c3ccc(F)cc3)cc2)nc(Nc2ccc(F)cc2)n1 [24f]
[1]
  GI50: 3.57 µM
  CC50: 14.6 µM
[2]
  MIC: 25 µg/mL (≈ 43.1 µM)
[3]
  GI50: 8.39 µM
  CC50: 23.5 µM
[4]
  GI50: 2.76 µM
  CC50: 10.6 µM
[5]
  GI50: 1.9 µM
  CC50: 4.02 µM
[6]
  GI50: 3.13 µM
  CC50: 10.9 µM
[7]
  GI50: 3.89 µM
  CC50: 16.4 µM
[8]
  GI50: 3.01 µM
  CC50: 12.7 µM
[9]
  GI50: 3.6 µM
  CC50: 13.7 µM
[10]
  GI50: 6.3 µM
  CC50: 71.5 µM
[11]
  GI50: 3.42 µM
  CC50: > 100 µM
[12]
  GI50: 4.58 µM
  CC50: 16.8 µM
[13]
  GI50: 4.24 µM
  CC50: 17.8 µM
[14]
  GI50: 3.25 µM
  CC50: 11.6 µM
[15]
  GI50: 3.42 µM
  CC50: 13.9 µM
[16]
  GI50: 2.32 µM
  CC50: 5.69 µM
[17]
  GI50: 3.42 µM
  CC50: 12.4 µM
[18]
  GI50: 2.42 µM
  CC50: 6.79 µM
[19]
  GI50: 2.26 µM
  CC50: 7.51 µM
[20]
  hemolysis at 24 h, 200 µg/mL: 9.9%
[21]
  GI50: 4.87 µM
  CC50: 17.1 µM
[22]
  GI50: 1.8 µM
  CC50: 3.45 µM
[23]
  GI50: 4.27 µM
  CC50: 15 µM
[24]
  GI50: 1.74 µM
  CC50: 3.24 µM
[25]
  GI50: 2.95 µM
  CC50: 10.9 µM

## Nc1nc(N)c2c(n1)NC(c1ccc(F)cc1)CC(c1ccc(Nc3nc(NCCO)nc(Nc4ccc(Cl)cc4)n3)cc1)=N2 (stereo not shown) [33f]
[1]
  GI50: 1.96 µM
[3]
  GI50: 1.77 µM
  CC50: 11.7 µM
[4]
  GI50: 1.72 µM
  CC50: > 100 µM
[5]
  GI50: 1.6 µM
  CC50: 6.68 µM
[26]
  MIC: 1 µg/mL (≈ 1.59 µM)
[6]
  GI50: 3.22 µM
  CC50: > 100 µM
[7]
  GI50: 2.85 µM
  CC50: 76 µM
[8]
  GI50: 6.14 µM
  CC50: > 100 µM
[9]
  GI50: 1.7 µM
  CC50: 5.93 µM
[10]
  GI50: 2.04 µM
  CC50: > 100 µM
[11]
  GI50: 0.754 µM
  CC50: > 100 µM
[27]
  GI50: 0.672 µM
[27]; read-out: LC50
  CC50: > 100 µM
[12]
  GI50: 1.76 µM
[13]
  GI50: 2.43 µM
  CC50: 33.5 µM
[14]
  GI50: 7.73 µM
  CC50: > 100 µM
[15]
  GI50: 1.16 µM
  CC50: 6.81 µM
[16]
  GI50: 1.7 µM
  CC50: 7.42 µM
[17]
  GI50: 1.66 µM
[18]
  GI50: 0.489 µM
  CC50: > 100 µM
[19]
  GI50: 1.17 µM
  CC50: 5.9 µM
[20]
  hemolysis at 24 h, 200 µg/mL: 5%
[21]
  GI50: 1.56 µM
  CC50: 6.47 µM
[22]
  GI50: 1.61 µM
  CC50: 5.78 µM
[23]
  GI50: 1.7 µM
[24]
  GI50: 1.58 µM
  CC50: 6.82 µM
[25]
  GI50: 1.66 µM
  CC50: 24 µM

## CN(C)c1nc(NCCNS(=O)(=O)c2ccc(C(=O)/C=C/c3ccc(C(F)(F)F)cc3)cc2)nc(Nc2ccc(F)cc2)n1 [24g]
[1]
  GI50: 6.24 µM
  CC50: 19.4 µM
[2]
  MIC: 50 µg/mL (≈ 79.4 µM)
[3]
  GI50: 13.6 µM
  CC50: 27.7 µM
[4]
  GI50: 4.15 µM
  CC50: 18.2 µM
[5]
  GI50: 2.24 µM
  CC50: 5.06 µM
[6]
  GI50: 5.08 µM
  CC50: 17.4 µM
[7]
  GI50: 7.71 µM
  CC50: 22.5 µM
[8]
  GI50: 6.46 µM
  CC50: 19.7 µM
[9]
  GI50: 10.4 µM
  CC50: 22.2 µM
[10]
  GI50: 12.7 µM
  CC50: 49.5 µM
[11]
  GI50: 3.79 µM
  CC50: > 100 µM
[12]
  GI50: 12 µM
  CC50: 24.3 µM
[13]
  GI50: 11.6 µM
  CC50: 24.3 µM
[14]
  GI50: 10.7 µM
  CC50: 23.7 µM
[15]
  GI50: 12.3 µM
  CC50: 30.6 µM
[16]
  GI50: 2.86 µM
  CC50: 8.49 µM
[17]
  GI50: 14.2 µM
  CC50: 27.5 µM
[18]
  GI50: 2.98 µM
  CC50: 30.4 µM
[19]
  GI50: 3.7 µM
  CC50: 16 µM
[20]
  hemolysis at 24 h, 200 µg/mL: 0.8%
[21]
  GI50: 12.7 µM
  CC50: 25.6 µM
[22]
  GI50: 1.77 µM
  CC50: 3.61 µM
[23]
  GI50: 12.3 µM
  CC50: 24.9 µM
[24]
  GI50: 2.04 µM
  CC50: 5.61 µM
[25]
  GI50: 4.2 µM
  CC50: 15.7 µM
